# Test results as given in patent US6410250B1 (priority 1996, dated 2002).
# “Also recorded” adds a separate entry of the source.
# Key:
# [1] = test system: draining lymph node cells; format: cell-based, mouse
# [2] = test system: Starch-elicited peritoneal macrophages; assay: Infection of starch-elicited peritoneal macrophages in vitro; format: cell-based, mouse; details: thymidine 100 μg/ml added to the medium
# [3] = In vivo rescue of dhfr-ts- phenotype with thymidine osmotic pumps; set-up: species or system mice; details: continuous thymidine supplementation
# L. major = assay: Growth of L. major promastigotes in liquid medium with drug; format: cell-based, Leishmania major
molecule,measurement,setting,value
bacillus Calmette-Guerin,proliferation as [3H]thymidine incorporation,[1],1100±1000 cpm
Cc1cn([C@H]2C[C@H](O)[C@@H](CO)O2)c(=O)[nH]c1=O [thymidine],effect of thymidine on dhfr-ts^− in macrophages,[2],restored both survival and replication
same,restoration of animal infectivity of dhfr-ts^− by thymidine supplementation,[3],partially restored; also recorded: partially restore infectivity
CN[C@H]1C[C@@H](N)[C@H](O)[C@@H](O[C@@H]2O[C@H](CO)[C@H](O)[C@@H]3OC4(O[C@H]23)O[C@H]([C@@H](N)CO)[C@H](O)[C@H](O)[C@H]4O)[C@@H]1O (stereo partly shown) [hygromycin B],hygromycin B concentration resulting in a 50% reduction in growth,L. major; +/HYG line,200 μg per ml
"CN(Cc1cnc2nc(N)nc(N)c2n1)c1ccc(C(=O)N[C@@H](CCC(=O)O)C(=O)O)cc1 [MTX, methotrexate]",EC50,"L. major; Leishmania major, wild-type or heterozygous (+/HYG) cells, liquid media, read-out: concentration of MTX required to inhibit cell growth by 50% (EC50)",~1000 nM
same,growth in presence of MTX,"L. major; dhfr-ts^− NEO/HYG knockout, 100 μM MTX, liquid media",grew well
"ovalbumin (protein, UniProt P01012 2-386, looked up, antigen preparation used as specificity control in lymph node proliferation assay) Ovalbumin: GSIGAASMEFCFDVFKELKVHHANENIFYCPIAIMSALAMVYLGAKDSTRTQINKVVRFDKLPGFGDSIEAQCGTSVNVHSSLRDILNQITKPNDVYSFSLASRLYAEERYPILPEYLQCVKELYRGGLEPINFQTAADQARELINSWVESQTNGIIRNVLQPSSVDSQTAMVLVNAIVFKGLWEKAFKDEDTQAMPFRVTEQESKPVQMMYQIGLFRVASMASEKMKILELPFASGTMSMLVLLPDEVSGLEQLESIINFEKLTEWTSSNVMEERKIKVYLPRMKMEEKYNLTSVLMAMGITDVFSSSANLSGISSAESLKISQAVHAAHAEINEAGREVVGSAEAGVDAASVSEEFRADHPFLFCIKHIATNAVLFFGRCVSP",proliferation as [3H]thymidine incorporation,[1],2600±1100 cpm
